Assay results from patent US20170145472A1, “METHOD OF DETECTING HELICASE ACTIVITY” (University of Macau, priority 2015, published 2017).

Legend:
[1] = target: T1, helicase (Hepatitis C virus genotype 1a, UniProt P27958); test: Luminescence response of complexes towards helicase alone
T1 construct: upon the addition of 0.8 μM HCV NS3 helicase; purchased Prospec Inc. (Ness-Ziona, Israel)
Excerpt: M G-quadruplex DNA over helicase, IG4/Ihelicase refers to the ratio of the lunminscent response of PS2. M G-quadruplex DNA over helicase.

[2] = test system: PS2.M G-quadruplex DNA; test: Luminescence response of Ir(III) complexes towards different forms of DNA; type: binding; settings: complex 1 μM, DNA 5 μM
Excerpt: M G-quadruplex DNA (G4) over dsDNA (ds17) and ssDNA (CCRS-DEL), in particular IG4/IdsDNA refers to the ratio of the luminescent response of PS2. M G-quadruplex DNA over dsDNA (ds17); and IG4/IssDNA refers to the ratio of the luminescent response of PS2. M G-quadruplex DNA over ssDNA(CCR5-DEL).
M G-quadruplex DNA over dsDNA (ds17) and ssDNA (CCRS-DEL), in particular IG4/IdsDNA refers to the ratio of the luminescent response of PS2. M G-quadruplex DNA over dsDNA (ds17); and IG4/IssDNA refers to the ratio of the luminescent response of PS2. M G-quadruplex DNA over ssDNA(CCR5-DEL).
The G-quadruplex DNA-forming sequence (PS2. M) was annealed in Tris-HCl buffer (20 mM Tris, 100 mM KCl, pH 7.0) and were stored at −20° C. or less than −20° C. before use. Complex 1-17 (1 μM) was added to 5 μM of ssDNA, dsDNA or PS2. M G-quadruplex DNA in Tris-HCl buffer (20 mM Tris, pH 7.0).

[3] = test system: F10T dsDNA; test: FRET melting assay, duplex; type: binding; settings: F10T 0.2 μM, complex 9 5 μM
Method: (§1) The ability of complex 9 to stabilize G-quadruplex DNA was investigated using a fluorescence resonance energy transfer (FRET) melting assay. The labeled G-quadruplex-forming oligonucleotide F21T, consisting of a sequence 5′-FAM-(SEQ ID NO: 5)-TAMRA-3′ (donor fluorophore FAM: 6-carboxyfluorescein; acceptor fluorophore TAMRA: 6-carboxytetramethylrhodamine), was diluted to 200 nM in a potassium cacodylate buffer (100 mM KCl, pH 7.0), and then heated from room temperature to 95° C. in the presence of the indicated concentrations of complex 9. The labeled duplex-forming oligonucleotide F10T, consisting of a sequence 5′-FAM-[…]-HEG-(SEQ ID NO: 6)-3′ (HEG linker: [(—CH2—CH2—O—)6]), was treated in the same manner, except that the buffer was changed to 10 mM lithium cacodylate (pH 7.4). Fluorescence readings were taken at intervals of 0.5° C. in a range of 25 to 95° C.

[4] = Photophysical measurement; type: physicochemical
Method: Emission spectra and lifetime measurements for complexes were performed on a PTI TimeMaster C720 Spectrometer (Nitrogen laser: pulse output 337 nm) fitted with a 380 nm filter. Error limits were estimated: λ (±1 nm); τ (±10%); φ (±10%). All solvents used for the lifetime measurements were degassed using three cycles of freeze-vac-thaw.
Luminescence quantum yields were determined using the method of Demas and Crosby [Ru(bpy)3][PF6]2 in degassed acetonitrile as a standard reference solution (Φr=0.062) and calculated according to the following equation:
Φs=Φr(Br/Bs)(ns/nr)^2(Ds/Dr) • where the subscripts s and r refer to sample and reference standard solution respectively, n is the refractive index of the solvents, D is the integrated intensity, and Φ is the luminescence quantum yield. The quantity B was calculated by B=1−10^−AL, where A is the absorbance at the excitation wavelength and L is the optical path length.

[5] = target: T2, HCV NS3 helicase (Hepatitis C virus genotype 1a, UniProt P27958); test: G-quadruplex-based luminescent HCV NS3 helicase activity assay; type: biochemical
T2 construct: upon the addition of 0.8 μM HCV NS3 helicase; purchased Prospec Inc. (Ness-Ziona, Israel)
Method: The random-coil oligonucleotides ON1 (100 μM) and ON2 (100 μM) were incubated in Tris buffer (20 mM, pH 7.0). The solution was heated at a temperature of 72-98° C., in particular 95° C., for at least 30 seconds in particular 10 min, cooled to room temperature at 0.1° C./s, and further incubated at room temperature for 1 hour to ensure formation of the duplex substrate. The annealed product was stored at −20° C. before use. For assaying enzyme activity, 50 μL of Tris buffered solution (5 mM Tris-HCl, 5 mM NaCl, 1 mM MgCl2, 1 mM ATP, 0.1 mM DTT, pH 7.9) with the indicated concentrations of helicase or S1, Endo, DpnI, ExoI, EcoRI, RNase, DNase, and SSB were added to a solution containing the duplex substrate (0.25 μM). The mixture was heated to 37° C. for at least 30 minutes, e.g. 2 hours, to allow the indicated enzymes-catalyzed unwinding of the duplex substrate to take place. The duplex unwinding reaction was quenched by the addition of EDTA at a final concentration of 20 mM, and the mixture was subsequently diluted using Tris buffer (20 mM Tris, 20 mM KCl, 150 mM NH4Ac, pH 7.2) to a final volume of 500 μL. […] Emission spectra were recorded in the 500-720 nm range using an excitation wavelength of 360 nm.
For the detection of helicase activity in cell extract, 50 μL of Tris buffered solution (5 mM Tris-HCl, 5 mM NaCl, 1 mM MgCl2, 1 mM ATP, 0.1 mM DTT, pH 7.9) and the indicated concentrations of helicase were added to a solution containing the duplex substrate (0.25 μM) and cell extract. The mixture was heated to 37° C. for at least 30 minutes, e.g. 2 hours, to allow the helicase-catalyzed unwinding of the duplex substrate to take place. The duplex unwinding reaction was quenched by the addition of EDTA at a final concentration of 20 mM, and the mixture was subsequently diluted using Tris buffer (20 mM Tris, 20 mM KCl, 150 mM NH4Ac, pH 7.2) to a final volume of 500 μL. Finally, 1 μM of complex 9 was added to the mixture. Emission spectra were recorded in the 500-720 nm range using an excitation wavelength of 360 nm.

[6] = test system: F21T G-quadruplex DNA; test: FRET melting assay, G-quadruplex; type: binding; settings: F21T 0.2 μM, complex 9 5 μM
Method: as §1

[7] = test system: Pu27 G-quadruplex DNA; test: G-quadruplex fluorescent intercalator displacement (G4-FID) assay; type: binding
Method: The FID assay was performed as described. The Pu27 G-quadruplex DNA (0.25 μM) in Tris-HCl buffer (20 mM Tris, 100 mM KCl, pH 7.0) were annealed by heating at a temperature of 72-98° C., in particular 95° C., for at least 10 min. Indicated concentration of thiazole orange (0.5 μM for Pu27 G-quadruplex DNA and 0.5 μM for ds17) was added and the mixture was incubated for at least 30 minutes, in particular 1 hour. Emission measurement was taken after addition of each indicated concentration of complex 9 followed by an equilibration time for 5 minutes. The fluorescence area was converted into percentage of displacement (PD) by using the following equation. PD=100−[(FA/FA0)×100] (FA0=fluorescence area of DNA-TO complex in the absence of complex 9; FA=fluorescence area in the presence of complex 9).

T2 sequence (P27958 1027-1657): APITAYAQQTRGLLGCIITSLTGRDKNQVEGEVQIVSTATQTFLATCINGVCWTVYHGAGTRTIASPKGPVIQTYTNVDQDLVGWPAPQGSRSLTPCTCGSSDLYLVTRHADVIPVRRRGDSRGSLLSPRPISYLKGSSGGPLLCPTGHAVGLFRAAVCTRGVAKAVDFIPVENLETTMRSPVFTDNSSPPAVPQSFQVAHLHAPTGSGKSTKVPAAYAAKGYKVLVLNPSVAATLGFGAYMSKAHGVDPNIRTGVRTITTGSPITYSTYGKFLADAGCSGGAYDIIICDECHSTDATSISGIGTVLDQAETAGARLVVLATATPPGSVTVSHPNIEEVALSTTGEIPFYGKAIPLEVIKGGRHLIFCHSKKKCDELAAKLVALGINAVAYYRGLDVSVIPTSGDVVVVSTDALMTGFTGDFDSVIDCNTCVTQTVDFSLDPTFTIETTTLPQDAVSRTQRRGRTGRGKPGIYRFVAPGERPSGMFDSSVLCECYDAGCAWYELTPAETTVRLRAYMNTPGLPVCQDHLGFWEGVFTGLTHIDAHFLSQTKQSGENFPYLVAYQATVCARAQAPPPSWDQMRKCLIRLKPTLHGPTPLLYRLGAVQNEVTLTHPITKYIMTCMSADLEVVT
T1 sequence (P27958 1027-1657): as above

SMILES: F[P-](F)(F)(F)(F)F.[Ir+3].[c-]1ccccc1-c1ccc2ccccc2n1.[c-]1ccccc1-c1ccc2ccccc2n1.c1cnc2c(c1)ccc1cccnc12 [Complex 9]
- change in luminescence intensity of the complex 9+G-quadruplex ensemble upon addition of helicase ([1]; 0.8 μM HCV NS3 helicase): no significant change
- luminescence enhancement in the presence of helicase only ([1]; helicase alone, no DNA): no luminescence enhancement in the presence of helicase
- luminescence response in the presence of the PS2.M G-quadruplex [2]: significantly enhanced luminescence response
- change in the melting temperature of F10T dsDNA [3]: 4 °C
- Lifetime [4]: 8.13 μs
- λem [4]: 570 nm
- Quantum yield ([4]; reference [Ru(bpy)3][PF6]2 in degassed acetonitrile): 0.12
- luminescence of complex 9 upon incubation with helicase and the ON1-ON2 duplex substrate ([5]; ON1-ON2 duplex substrate, K+): significantly enhanced
- luminescence of complex 9 in response to helicase for the mutant DNA sequences ([5]; ON1m/ON2 duplex mutant 0.25 μM, helicase 0.9 μM, complex 9 1 μM): slight decrease
- enhancement in luminescence of the system ([5]; helicase concentration 0.9 μM): ca. 4.5 fold
- luminescence intensity of the system with increasing helicase in cell extract ([5]; reaction system containing 0.5% (v/v) cell extract): gradual increase in luminescence intensity
- detection limit of the assay for helicase ([5]; signal-to-noise ratio (S/N) of 3): 0.09 µM
- increase of melting temperature (ΔTm) of F21T G-quadruplex [6]: about 13 °C
- G4DC50, half-maximal concentration of compound required to displace 50% TO from DNA ([7]; Pu27 G-quadruplex DNA 0.25 μM, thiazole orange 0.5 μM, Tris-HCl buffer): ca. 5 μM
- displacement of thiazole orange from G-quadruplex DNA compared with duplex DNA ([7]; Pu27 G-quadruplex vs ds17 duplex): higher efficacy than from duplex DNA
